# Experimental data reported in ChEMBL document CHEMBL3885881, “DrugMatrix”.
# Organism: Rattus norvegicus
# Assay: DrugMatrix - Regimen: Daily Repeat
# Format: toxicity, organism-based, Sprague-Dawley
# Design: regimen Daily Repeat, gender Male, age 6-8 weeks
# Details: in vivo, po, route oral GAVAGE, […]; for ABSOLUTE BASOPHIL / ABSOLUTE EOSINOPHIL / ABSOLUTE LYMPHOCYTE / ABSOLUTE MONOCYTE / ABSOLUTE SEGMENTED NEUTROPHIL / BASOPHIL / EOSINOPHIL / ERYTHROCYTE COUNT / HEMATOCRIT / HEMOGLOBIN / LEUKOCYTE COUNT / LYMPHOCYTE / MEAN CORPUSCULAR HEMOGLOBIN / MEAN CORPUSCULAR HEMOGLOBIN CONCENTRATION / MEAN CORPUSCULAR VOLUME / MONOCYTE / NEUTROPHIL / NUCLEATED RED BLOOD CELLS / PLATELET COUNT: tissue Blood; for ALANINE AMINOTRANSFERASE / ALBUMIN / ALKALINE PHOSPHATASE / ASPARTATE AMINOTRANSFERASE / BLOOD UREA NITROGEN / CARBON DIOXIDE / CHLORIDE / CHOLESTEROL / CREATINE PHOSPHOKINASE / CREATININE / GLUCOSE / LACTATE DEHYDROGENASE / LIPASE / PHOSPHORUS / POTASSIUM / SODIUM / TOTAL BILIRUBIN / TOTAL PROTEIN / URIC ACID: tissue Plasma
# [1] = 5 mg/kg, 120 h, dose level Low, time 5 day
# [2] = 94 mg/kg, 72 h, dose level High, time 3 day
# [3] = 94 mg/kg, 120 h, dose level High, time 5 day
compound,measurement,setting,value
CC(C)n1c(/C=C/C(O)CC(O)CC(=O)O)c(-c2ccc(F)cc2)c2ccccc21 (centres undefined) [FLUVASTATIN],ABSOLUTE BASOPHIL,[1],0 CELLS/uL
same,ABSOLUTE EOSINOPHIL,[1],0 CELLS/uL
same,ABSOLUTE LYMPHOCYTE,[1],8489.33 CELLS/uL
same,ABSOLUTE MONOCYTE,[1],28 CELLS/uL
same,ABSOLUTE SEGMENTED NEUTROPHIL,[1],816 CELLS/uL
same,BASOPHIL,[1],0%
same,EOSINOPHIL,[1],0%
same,ERYTHROCYTE COUNT,[1],5.73 x10E6/uL
same,HEMATOCRIT,[1],34.77%
same,HEMOGLOBIN,[1],13.73 G/DL
same,LEUKOCYTE COUNT,[1],9.33 x10E3/uL
same,LYMPHOCYTE,[1],90.67%
same,MEAN CORPUSCULAR HEMOGLOBIN,[1],24 pg
same,MEAN CORPUSCULAR HEMOGLOBIN CONCENTRATION,[1],39.5 G/DL
same,MEAN CORPUSCULAR VOLUME,[1],60.73 fL
same,MONOCYTE,[1],0.33%
same,NEUTROPHIL,[1],9%
same,NUCLEATED RED BLOOD CELLS,[1],0 /100WBC
same,PLATELET COUNT,[1],1186.33 x10E3/uL
same,ALANINE AMINOTRANSFERASE,[1],89.67 u/L
same,ALBUMIN,[1],4.33 G/DL
same,ALKALINE PHOSPHATASE,[1],440.33 u/L
same,ASPARTATE AMINOTRANSFERASE,[1],141.33 u/L
same,BLOOD UREA NITROGEN,[1],13 mg/dL
same,CARBON DIOXIDE,[1],25.67 mmol/L
same,CHLORIDE,[1],103 MEQ/L
same,CHOLESTEROL,[1],59.67 mg/dL
same,CREATINE PHOSPHOKINASE,[1],300.67 u/L
same,CREATININE,[1],0.19 mg/dL
same,GLUCOSE,[1],158.33 mg/dL
same,LACTATE DEHYDROGENASE,[1],263.33 u/L
same,LIPASE,[1],51.67 u/L
same,PHOSPHORUS,[1],9.2 mg/dL
same,POTASSIUM,[1],5.92 MEQ/L
same,SODIUM,[1],148.8 MEQ/L
same,TOTAL BILIRUBIN,[1],0.17 mg/dL
same,TOTAL PROTEIN,[1],5.6 G/DL
same,URIC ACID,[1],0.77 mg/dL
same,ABSOLUTE BASOPHIL,[2],0 CELLS/uL
same,ABSOLUTE EOSINOPHIL,[2],39 CELLS/uL
same,ABSOLUTE LYMPHOCYTE,[2],7651.67 CELLS/uL
same,ABSOLUTE MONOCYTE,[2],155.33 CELLS/uL
same,ABSOLUTE SEGMENTED NEUTROPHIL,[2],2554 CELLS/uL
same,BASOPHIL,[2],0%
same,EOSINOPHIL,[2],0.33%
same,ERYTHROCYTE COUNT,[2],5.55 x10E6/uL
same,HEMATOCRIT,[2],35.43%
same,HEMOGLOBIN,[2],13.93 G/DL
same,LEUKOCYTE COUNT,[2],10.4 x10E3/uL
same,LYMPHOCYTE,[2],73.33%
same,MEAN CORPUSCULAR HEMOGLOBIN,[2],25.1 pg
same,MEAN CORPUSCULAR HEMOGLOBIN CONCENTRATION,[2],39.33 G/DL
same,MEAN CORPUSCULAR VOLUME,[2],63.83 fL
same,MONOCYTE,[2],1.33%
same,NEUTROPHIL,[2],25%
same,NUCLEATED RED BLOOD CELLS,[2],0 /100WBC
same,PLATELET COUNT,[2],1394.33 x10E3/uL
same,ALANINE AMINOTRANSFERASE,[2],258.33 u/L
same,ALBUMIN,[2],4.47 G/DL
same,ALKALINE PHOSPHATASE,[2],597.67 u/L
same,ASPARTATE AMINOTRANSFERASE,[2],446.67 u/L
same,BLOOD UREA NITROGEN,[2],15 mg/dL
same,CARBON DIOXIDE,[2],34.67 mmol/L
same,CHLORIDE,[2],95.67 MEQ/L
same,CHOLESTEROL,[2],55.67 mg/dL
same,CREATINE PHOSPHOKINASE,[2],534 u/L
same,CREATININE,[2],0.16 mg/dL
same,GLUCOSE,[2],136.33 mg/dL
same,LACTATE DEHYDROGENASE,[2],400.33 u/L
same,LIPASE,[2],10 u/L
same,PHOSPHORUS,[2],11.83 mg/dL
same,POTASSIUM,[2],5.75 MEQ/L
same,SODIUM,[2],143.43 MEQ/L
same,TOTAL BILIRUBIN,[2],0.2 mg/dL
same,TOTAL PROTEIN,[2],6.1 G/DL
same,URIC ACID,[2],0.7 mg/dL
same,ABSOLUTE BASOPHIL,[3],0 CELLS/uL
same,ABSOLUTE EOSINOPHIL,[3],0 CELLS/uL
same,ABSOLUTE LYMPHOCYTE,[3],6138.33 CELLS/uL
same,ABSOLUTE MONOCYTE,[3],139 CELLS/uL
same,ABSOLUTE SEGMENTED NEUTROPHIL,[3],2022.67 CELLS/uL
same,BASOPHIL,[3],0%
same,EOSINOPHIL,[3],0%
same,ERYTHROCYTE COUNT,[3],6.14 x10E6/uL
same,HEMATOCRIT,[3],37.2%
same,HEMOGLOBIN,[3],14.47 G/DL
same,LEUKOCYTE COUNT,[3],8.3 x10E3/uL
same,LYMPHOCYTE,[3],74%
same,MEAN CORPUSCULAR HEMOGLOBIN,[3],23.6 pg
same,MEAN CORPUSCULAR HEMOGLOBIN CONCENTRATION,[3],38.9 G/DL
same,MEAN CORPUSCULAR VOLUME,[3],60.67 fL
same,MONOCYTE,[3],1.67%
same,NEUTROPHIL,[3],24.33%
same,NUCLEATED RED BLOOD CELLS,[3],0 /100WBC
same,PLATELET COUNT,[3],1488.67 x10E3/uL
same,ALANINE AMINOTRANSFERASE,[3],191 u/L
same,ALBUMIN,[3],4.5 G/DL
same,ALKALINE PHOSPHATASE,[3],802.67 u/L
same,ASPARTATE AMINOTRANSFERASE,[3],387.67 u/L
same,BLOOD UREA NITROGEN,[3],11.67 mg/dL
same,CARBON DIOXIDE,[3],29.33 mmol/L
same,CHLORIDE,[3],100 MEQ/L
same,CHOLESTEROL,[3],53.33 mg/dL
same,CREATINE PHOSPHOKINASE,[3],612.33 u/L
same,CREATININE,[3],0.13 mg/dL
same,GLUCOSE,[3],134.33 mg/dL
same,LACTATE DEHYDROGENASE,[3],263.33 u/L
same,LIPASE,[3],38.67 u/L
same,PHOSPHORUS,[3],7.8 mg/dL
same,POTASSIUM,[3],5.55 MEQ/L
same,SODIUM,[3],149.05 MEQ/L
same,TOTAL BILIRUBIN,[3],0.1 mg/dL
same,TOTAL PROTEIN,[3],6.03 G/DL
same,URIC ACID,[3],0.43 mg/dL
